US20200171065A1, “METHOD FOR TREATING LIVER DISEASE WITH KINSENOSIDE” (HUAZHONG UNIVERSITY OF SCIENCE AND TECHNOLOGY, priority 2017, published 2020)
Entries after “also recorded” stand apart in the source; their conditions may differ.

How the values were obtained:
Assay type in all cases: in vivo
[1] = test system: C57BL/6J mice with alcoholic liver fibrosis; test: Alcoholic liver fibrosis (Lieber-DeCarli liquid diet + CCl4)
Method: C57BL/6J mice aged 8 weeks were raised in the SPF experimental animal center of Tongji Medical College of Huazhong University of Science and Technology. They were provided with standard diet and drinking water. The room temperature was controlled at 23±2° C. After 7 days of adaptive feeding, they were given drugs by intragastric administration.
The mice were fed with a 5% alcoholic Lieber-DeCarli liquid diet and intraperitoneal injection of CCl4 (CCl4 was intraperitoneally injected twice a week for the last four weeks). The mice were developed alcoholic fatty liver disease. The mice were administered with alcohol and drugs. Spherically, drinking water were administered to the control group and the model group, and different doses were administered to the dose groups.

[2] = test system: SD mice with ANIT induced intrahepatic cholestasis; test: ANIT-induced intrahepatic cholestasis
Method: 42 SPF SD mice were purchased and raised in the SPF experimental animal center of Tongji Medical College of Huazhong University of Science and Technology. They were provided with standard diet and drinking water. The room temperature was controlled at 23±2° C. After 3 days of adaptive feeding, they were given drugs by intragastric administration. 42 SD mice were randomly divided into 7 groups (normal control group, ANIT model group, KD low-dose group, KD medium dose group, KD high-dose group, UDCA positive control group and KD negative control group), 6 mice in each group were weighed and recorded daily. […] Thereafter, the drug was given again every 24 hours for 3 times, and the animals in each group were fasted (water was provided) after the third time. 72 hours later, the animals were killed and samples were collected.

[3] = test system: C57BL/6 mice with HFFD nonalcoholic fatty liver; test: Nonalcoholic fatty liver induced by high-fat and high fructose diet (HFFD)
Method: 60 SPF male C57BL/6 mice aged 4 weeks were raised in the SPF experimental animal center of Tongji Medical College of Huazhong University of Science and Technology. They were provided with standard diet and drinking water. The room temperature was controlled at 23±2° C. After 7 days of adaptive feeding, the mice were randomly divided into a control group with normal diet and a high-fat and high fructose diet group (40% fat, 40% fructose, 20% protein, HFFD). […] The mice were fed according to the groups, and the control group and the model group were fed with the same dose of normal saline for 4 weeks. […] The development of nonalcoholic fatty liver disease is closely related to the lipid levels of the liver and serum.

[4] = low, medium and high dose of KD

Question: Which “fibrosis degree (Masson staining)” value ([1]; 40 and 20 mg/kg KD) does the source give for O=C1C[C@@H](O[C@@H]2O[C@H](CO)[C@@H](O)[C@H](O)[C@H]2O)CO1 [KD] here?
Answer: The value was “can significantly reduce the degree of fibrosis in mice; also recorded: the fibrosis degree was reduced”.

Question: What about the “inflammatory cells and Mallory bodies (H&E staining)” value ([1]; 40 and 20 mg/kg KD) of the same molecule?
Answer: The value was “the inflammatory cells in the KD group were reduced compared with the model group”.

Question: What about the “SOD activity in the liver homogenate / oxidative stress injuries” value ([1]; ALF mice) of the same molecule?
Answer: The value was “increased the activity of superoxide dismutase (SOD) in the liver of AFL and ALF mice; also recorded: could reverse the oxidative stress injuries”.

Question: What about the “serum ALT” value ([1]; ALF mice) of the same molecule?
Answer: The value was “decreased the serum alanine aminotransferase (ALT) of AFL and ALF mice; also recorded: decreased after KD treatment”.

Question: And the “secretion of TNF-α and IL-6” value ([1]; high and medium dose groups)?
Answer: Its value is “inhibited the secretion of TNF and IL6 in AFL and ALF; also recorded: reduced the secretion of the inflammatory cytokine TNF-α and IL-6”.

Question: What about the “therapeutic effect on alcoholic liver fibrosis (overall)” value ([1]; mouse, in vivo) of the same molecule?
Answer: Its value is “has a good therapeutic effect on alcoholic fatty liver and alcoholic liver fibrosis”.

Question: What about the plasma biochemical indexes ([2]; 100 mg/kg KD to normal mice) of the same molecule?
Answer: The plasma biochemical indexes was “did not change”.

Question: And the plasma color ([2]; KD 50, 100, 200 mg/kg or UDCA 80 mg/kg by gavage)?
Answer: The plasma color was “turned light yellow similar to that of the normal control group”.

Question: What about the “expression of Fxr and Cyp7a1 genes” value ([2]; cholestasis mice, high-dose KD) of the same molecule?
Answer: The value was “can significantly up regulate the expression of Fxr and Cyp7a1 genes”.

Question: What about the “expression of Bsep, Mrp2 and Mrp3 genes” value ([2]; cholestasis mice, medium and high-dose KD) of the same molecule?
Answer: The value was “can significantly up regulate the expression of Bsep, Mrp2 and Mrp3 genes”.

Question: What about the “hepatic sinusoid and inflammatory cell infiltration (HE staining)” value ([2]; different doses of KD, UDCA treatment group) of the same molecule?
Answer: Its value is “the expansion of hepatic sinusoid was improved and the infiltration of inflammatory cells was reduced”.

Question: And the “plasma ALT, AST, AKP, TBIL and DBIL” value ([2]; low, medium and high doses of KD, 80 mg/kg UDCA)?
Answer: Its value is “can significantly reduce ALT, AST, AKP, TBIL and DBIL”.

Question: What about the “plasma TBA” value ([2]; medium and high doses of KD, 80 mg/kg UDCA) of the same molecule?
Answer: Its value is “can significantly reduce TBA”.

Question: And the “ANIT-induced intrahepatic cholestasis liver injury (overall)” value ([2]; mouse, in vivo)?
Answer: Its value is “can alleviate the liver injury induced by ANIT; also recorded: has a good therapeutic effect on ANIT-induced intrahepatic cholestasis liver injury”.

Question: What about the “free fatty acid level in the serum” value ([3]; each dose of KD) of the same molecule?
Answer: The value was “could significantly inhibit the level of free fatty acids; also recorded: could significantly inhibit the free fatty acid level in the serum”.

Question: What about the “triglyceride in the liver” value ([3]; each dose of KD) of the same molecule?
Answer: The value was “could significantly inhibit the level of triglyceride in the liver”.

Question: And the “expression level of total macrophage marker molecule F4/80” value ([3]; high dose KD)?
Answer: The value was “inhibited the expression level of total macrophage marker molecule F4/80; also recorded: could inhibit the expression level of the total macrophage marker molecule F4/80”.

Question: And the “liver lipid degeneration, size and number of lipid droplets (photos, H&E staining)” value ([3]; high, middle and low dose groups, 4 weeks)?
Answer: The value was “could significantly reduce liver lipid denaturation induced by high-fat and high-fructose diet and reduce the size and number of lipid droplets in liver; also recorded: could significantly reduce the lipid degeneration and inhibit the size and number of lipid droplets”.

Question: What about the “secretion of anti-inflammatory cytokine IL-10 in serum” value [3, 4] of the same molecule?
Answer: The value was “promoted the secretion of the anti-inflammatory cytokine IL-10; also recorded: increase the secretion of anti-inflammatory cytokine IL-10”.

Question: What about the “secretion of proinflammatory cytokines IL-6, MCP-1, IFN-γ, TNF-α and IL-2 in serum” value [3, 4] of the same molecule?
Answer: The value was “significantly inhibited the secretion of pro-inflammatory cytokines IL6, MCP-1, IFN-γ, TNF-α and IL-2; also recorded: can significantly inhibit the secretion of proinflammatory cytokines IL-6, MCP-1, IFN-γ, TNF-α and IL-2”.

Question: What about the “total cholesterol in liver and serum” value ([3]; low, medium and high doses of KD) of the same molecule?
Answer: The value was “significantly inhibited; also recorded: significantly reduced”.

Question: What about the “serum LDL level” value ([3]; low-dose KD) of the same molecule?
Answer: Its value is “could significantly inhibit the level of serum LDL in mice”.

Question: What about the “expression of COX-2 and M1-type macrophage molecules IL6 and IFN” value ([3]; medium and high dose KD) of the same molecule?
Answer: Its value is “significantly inhibited the expression level of inflammatory molecule COX-2; also recorded: could significantly inhibit the expression level of inflammatory molecule COX-2 and the inflammatory M1-type macrophage molecules IL6 and IFN”.

Question: What about the “expression of M2-type macrophage marker molecules CD206, ARG1 and IL1β” value ([3]; medium and high dose KD) of the same molecule?
Answer: The value was “promoted the expression of anti-inflammatory M2-type macrophage marker molecules CD206, ARG1 and IL1; also recorded: promote the expression of anti-inflammatory M2-type macrophage marker molecules CD206, ARG1 and IL1β”.

Question: And the “therapeutic effect on nonalcoholic fatty liver (overall, vs silymarin 50 mg/kg)” value ([3]; mouse, in vivo)?
Answer: The value was “the therapeutic effect was better than that of silymarin; also recorded: significantly better than that of silymarin; also recorded: has a good therapeutic effect on non-alcoholic fatty liver”.
